According to PubChem BioAssay (NCI):
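48-hour exposure; five concentrations; linearly interpolated endpoints. GI50: concentration for 50% inhibition of growth. TGI is the concentration that stops growth completely.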

How the values were obtained:
Assay in all cases: DTP human tumour cell line panel, 48 h
SF-268 CNS = test system: SF-268 CNS
HT29 colon = test system: HT29 colon
EKVX NSCLC = test system: EKVX NSCLC
SNB-19 CNS = test system: SNB-19 CNS
SK-MEL-28 melanoma = test system: SK-MEL-28 melanoma
SF-295 CNS = test system: SF-295 CNS
M14 melanoma = test system: M14 melanoma
SF-539 CNS = test system: SF-539 CNS
NCI-H23 lung = test system: NCI-H23 lung
MDA-MB-435 = test system: MDA-MB-435

Row | SMILES | TGI (SF-268 CNS) | TGI (HT29 colon) | TGI (EKVX NSCLC) | TGI (SNB-19 CNS) | TGI (SK-MEL-28 melanoma) | TGI (SF-295 CNS) | TGI (M14 melanoma) | TGI (SF-539 CNS) | TGI (NCI-H23 lung) | GI50 (SF-268 CNS) | GI50 (HT29 colon) | GI50 (EKVX NSCLC) | GI50 (SNB-19 CNS) | GI50 (MDA-MB-435) | TGI (MDA-MB-435) | GI50 (SF-295 CNS) | GI50 (M14 melanoma) | GI50 (SF-539 CNS) | GI50 (NCI-H23 lung)
1 | O=C1c2ccccc2C2CCC1c1ccccc12 (stereo not drawn) | > 100 µM | > 100 µM | > 100 µM | > 100 µM | > 100 µM | > 100 µM | > 100 µM | > 100 µM | 65 µM | – | – | – | – | – | – | – | – | – | –
2 | O=C1C2C3CC(C4C5C=CC(C5)C34)C2C2C3CC(C12)C1C2C=CC(C2)C31 (stereo not drawn) | > 100 µM | > 100 µM | > 100 µM | > 100 µM | > 100 µM | > 100 µM | > 100 µM | > 100 µM | > 100 µM | – | – | – | – | – | – | – | – | – | –
3 | COc1ccc(/C=C2/SC(Nc3nc(-c4nc(NC5=NC(=O)/C(=C\c6ccc(OC)cc6)S5)sc4C)c(C)s3)=NC2=O)cc1 | > 33.8 µM | > 50 µM | 2.43 µM | > 50 µM | – | 4.97 µM | 2.36 µM | 3.95 µM | 4.97 µM | 2.79 µM | 1.99 µM | 0.213 µM | 5.81 µM | 0.143 µM | 0.633 µM | 0.255 µM | 0.499 µM | 1.36 µM | 0.944 µM
4 | N#CC(C(=O)/C(=N\NC(N)=O)C(C#N)c1ccccc1)c1ccccc1 (stereo not drawn) | > 100 µM | > 100 µM | > 100 µM | > 100 µM | > 100 µM | > 100 µM | > 100 µM | > 100 µM | > 100 µM | – | – | – | – | – | – | – | – | – | –
5 | COc1cc(/C=N/N=C(\N)NO)c(Cl)cc1O | > 100 µM | > 100 µM | > 100 µM | > 100 µM | > 100 µM | > 100 µM | – | > 100 µM | > 100 µM | – | – | – | – | – | – | – | – | – | –
